≈ marks a conversion by molar mass, not a printed value. Read-outs that look alike come from different tables or passages of the source.
Legend:
[1] = test system: S. pneumoniae+ GC 4465; assay: MIC, broth microdilution; settings: Streptococcus pneumoniae, S. pneumoniae+ GC 4465
[2] = test system: E. coli GC 4560; assay: MIC, broth microdilution; settings: Escherichia coli, GC4560, E. coli GC 4560
[3] = test system: E. coli GC 6465; assay: MIC, broth microdilution; settings: Escherichia coli, GC6465, E. coli GC 6465
[4] = test system: E. faecalis GC 2267; assay: MIC, broth microdilution; settings: Enterococcus faecalis, GC2267, E. faecalis GC 2267
Protocol: (§1) Antimicrobial susceptibility testing. The in vitro activities of the antibiotics are determined by the broth microdilution method as recommended by the National Committee for Clinical Laboratory Standards (NCCLS) (1). Mueller-Hinton II broth (MHBII)(BBL Cockeysville, Md.) is the medium employed in the testing procedures. Microtiter plates containing serial dilutions of each antimicrobial agent are inoculated with each organism to yield the appropriate density (10^5 CFU/ml) in a 100 μl final volume. The plates are incubated for 18-22 hours at 35° C. in ambient air.
Representative compounds were first incubated in mouse serum for an hour prior to the in vitro testing against a panel of selected gram-positive and gram-negative bacteria strains. All compounds were also pre-incubated in water for an hour prior to testing as control.

[5] = test system: S. aureus GC 2216; assay: MIC, broth microdilution; settings: Staphylococcus aureus, GC2216, S. aureus GC 2216
[6] = test system: S. aureus GC 1131; assay: MIC, broth microdilution; settings: Staphylococcus aureus, GC1131, S. aureus GC 1131
[7] = test system: E. coli GC 4559; assay: MIC, broth microdilution; settings: Escherichia coli, GC4559, E. coli GC 4559
[8] = test system: E. coli GC 2272; assay: MIC, broth microdilution; settings: Escherichia coli, GC2272, E. coli GC 2272
[9] = test system: E. coli GC 2231; assay: MIC, broth microdilution; settings: Escherichia coli, GC2231, E. coli GC 2231
[10] = test system: S. aureus GC 6466; assay: MIC, broth microdilution; settings: Staphylococcus aureus, GC6466, S. aureus GC 6466
[11] = test system: Staph. aureus Smith; assay: In vivo activity (oral, iv; ED50) against Staph. aureus Smith in mice
Protocol: Representative examples of compounds of Formula I were tested for the oral efficacy using S. aureus Smith in mice.

[12] = test system: P. aeruginosa GC 2214; assay: MIC, broth microdilution; settings: Pseudomonas aeruginosa, GC2214, P. aeruginosa GC 2214
[13] = test system: S. aureus GC 4536; assay: MIC, broth microdilution; settings: Staphylococcus aureus, GC4536, S. aureus GC 4536
[14] = test system: E. coli GC 2234; assay: MIC, broth microdilution; settings: Escherichia coli, GC2234, E. coli GC 2234
[15] = test system: E. coli GC 2203; assay: MIC, broth microdilution; settings: Escherichia coli, GC2203, E. coli GC 2203
[16] = test system: E. coli GC 2232; assay: MIC, broth microdilution; settings: Escherichia coli, GC2232, E. coli GC 2232
[17] = test system: S. aureus GC 6467; assay: MIC, broth microdilution; settings: Staphylococcus aureus, GC6467, S. aureus GC 6467
[18] = test system: E. faecalis GC 2242; assay: MIC, broth microdilution; settings: Enterococcus faecalis, GC2242, E. faecalis GC 2242
[19] = test system: S. epidermidis GC 4935; assay: MIC, broth microdilution; settings: Staphylococcus epidermidis, GC4935, S. epidermidis GC 4935
Protocol: as §1
Representative compounds were first incubated in mouse serum for an hour prior to the in vitro testing against a panel of selected gram-positive and gram-negative bacteria strains. All compounds were also pre-incubated in water for an hour prior to testing as control. Representative compounds of Formula I were incubated in human serum prior to MIC determination.

[20] = test system: S. pneumoniae* GC 4465; assay: MIC, broth microdilution; settings: Streptococcus pneumoniae, S. pneumoniae* GC 4465

`CCCCN(CC(=O)Nc1cc(N(C)C)c2c(c1O)C(=O)C1=C(O)[C@]3(O)C(=O)C(C(N)=O)=C(O)[C@@H](N(C)C)[C@@H]3C[C@@H]1C2)C(=O)OCOC(=O)C(C)(C)C` [Example 13, ({[(2-{[(5aR,6aS,7S,10aS)-9-(aminocarbonyl)-4,7-bis(dimethylamino)-1,8,10a,11-tetrahydroxy-10,12-dioxo-5,5a,6,6a,7,10,10a,12-octahydrotetracen-2-yl]amino}-2-oxoethyl)(butyl)amino]carbonyl}oxy)methyl pivalate] showed an MIC ([1]; Mouse Serum pre-incubation) of 8 µg/mL (≈ 10.8 µM), an MIC ([1]; Water pre-incubation) of 8 µg/mL (≈ 10.8 µM) and an MIC ([2]; Mouse Serum pre-incubation) of 1 µg/mL (≈ 1.34 µM). The MIC ([2]; Water pre-incubation) was 4 µg/mL (≈ 5.38 µM), the MIC ([3]; Mouse Serum pre-incubation) was 8 µg/mL (≈ 10.8 µM) and the MIC ([3]; Water pre-incubation) was > 64 µg/mL. The MIC ([4]; Mouse Serum pre-incubation) was 4 µg/mL (≈ 5.38 µM), the MIC ([4]; Water pre-incubation) was 8 µg/mL (≈ 10.8 µM) and the MIC ([5]; Mouse Serum pre-incubation) was 2 µg/mL (≈ 2.69 µM). The MIC ([5]; Water pre-incubation) was 4 µg/mL (≈ 5.38 µM), the MIC ([6]; Mouse Serum pre-incubation) was 2 µg/mL (≈ 2.69 µM) and the MIC ([6]; Water pre-incubation) was 2 µg/mL (≈ 2.69 µM). The MIC ([7]; Mouse Serum pre-incubation) was 4 µg/mL (≈ 5.38 µM), the MIC ([7]; Water pre-incubation) was 16 µg/mL (≈ 21.5 µM) and the MIC ([8]; Mouse Serum pre-incubation) was 2 µg/mL (≈ 2.69 µM). For the same compound, the MIC ([8]; Water pre-incubation) was 8 µg/mL (≈ 10.8 µM), the MIC ([9]; Mouse Serum pre-incubation) was 2 µg/mL (≈ 2.69 µM) and the MIC ([9]; Water pre-incubation) was 16 µg/mL (≈ 21.5 µM). For the same compound, the MIC ([10]; Mouse Serum pre-incubation) was 1 µg/mL (≈ 1.34 µM), the MIC ([10]; Water pre-incubation) was 2 µg/mL (≈ 2.69 µM) and the ED50 ([11]; Staphylococcus aureus, in Mus musculus, po, read-out: ED50 Staph Smith SOD) was 11 mg/kg. The ED50 ([11]; iv, read-out: ED50 Staph Smith SIV) was 0.82 mg/kg, the MIC ([12]; Mouse Serum pre-incubation) was 32 µg/mL (≈ 43 µM) and the MIC ([12]; Water pre-incubation) was > 64 µg/mL. For the same compound, the MIC ([13]; Mouse Serum pre-incubation) was 1 µg/mL (≈ 1.34 µM), the MIC ([13]; Water pre-incubation) was 2 µg/mL (≈ 2.69 µM) and the MIC ([14]; Mouse Serum pre-incubation) was 1 µg/mL (≈ 1.34 µM). For the same compound, the MIC ([14]; Water pre-incubation) was 8 µg/mL (≈ 10.8 µM), the MIC ([15]; Mouse Serum pre-incubation) was 2 µg/mL (≈ 2.69 µM) and the MIC ([15]; Water pre-incubation) was 8 µg/mL (≈ 10.8 µM). It also gave an MIC ([16]; Mouse Serum pre-incubation) of 2 µg/mL (≈ 2.69 µM), an MIC ([16]; Water pre-incubation) of 8 µg/mL (≈ 10.8 µM) and an MIC ([17]; Mouse Serum pre-incubation) of 4 µg/mL (≈ 5.38 µM). For the same compound, the MIC ([17]; Water pre-incubation) was 8 µg/mL (≈ 10.8 µM), the MIC ([18]; Mouse Serum pre-incubation) was 4 µg/mL (≈ 5.38 µM) and the MIC ([18]; Water pre-incubation) was 8 µg/mL (≈ 10.8 µM). For the same compound, the MIC ([19]; Mouse Serum pre-incubation) was 4 µg/mL (≈ 5.38 µM), the MIC ([19]; Water pre-incubation) was 8 µg/mL (≈ 10.8 µM) and the MIC ([20]; Mouse Serum pre-incubation) was 0.5 µg/mL (≈ 0.672 µM). For the same compound, the MIC ([20]; Water pre-incubation) was 0.5 µg/mL (≈ 0.672 µM).
